Results on five molecules are retold here after patent US20070238745A1, “PI3K-Akt Pathway Inhibitors” (UNIVERSITY OF SOUTH FLORIDA, priority 2006, published 2007).

Entries after “also recorded” stand apart in the source; their conditions may differ. Where two headings read alike, the source gives them in different places.

Data set [1] has as its system PC3-MM2 cells. Description: Cell growth by trypan-blue exclusion, PC3-MM2. The data set is classed as cell-based, human. The settings on record: 72 hr. As to the method:
(§1) FIG. 3 is a series of graphs illustrating the effects of drugs on growth potential of prostate cancer cells. Cells were treated with various inhibitors for 72 hrs and cell growth was enumerated by trypan-blue exclusion.
(§2) Prostate cancer cell lines used in our studies include LNCaP, LNCaP-Rf, PC3 and PC3-MM2. […] LNCaP cells and PC3 cells were derived from a lymph node metastasis and a bone metastasis, respectively, of human prostate tumors. All these cell lines express constitutively active AKT. To distinguish the effects of our therapeutics between normal and tumor cells, we also used an immortalized but non-tumorigenic prostate epithelial cell line, RWPE, in our study. All experiments were performed on growing cells in medium containing 10% fetal calf serum.
(§3) Further, effects of the combination treatment in altering colony formation potential were examined. For this purpose, cells were exposed to drugs for 24 or 46 hrs and trypsinized. Ten thousand viable cells were replated and allowed to grow colonies for 2 weeks.

Data set [2] deals with LNCaP cells. Description: PARP cleavage by Western blotting in LNCaP cells. The class given is cell-based, human. As to the method: Cell lysates were analysed for PARP cleavage by Western blotting. […] Lysates were analysed by Western blotting. […] Lysates were analysed by Western blotting. In FIG. 1D LNCaP cells were transfected with pcDNA3 (vector) or pcDNA3 encoding dn-AKT plasmid. […] Lysates were analysed by Western blotting.
as §2
Apoptosis was monitored by cleavage of the caspase-3 substrate poly (ADP-ribose) polymerase (PARP).
(A western blot detects proteins with antibodies after separation by electrophoresis.)

The conditions of data set [3]: cited from earlier work.
Data set [4] concerns PC3 cells. Description: Cell growth by trypan-blue exclusion, PC3. The settings on record: 72 hr. The data set is classed as cell-based, human. As to the method: as §1, §2, §3
In data set [5] the test system is PC3 cells. As to the kind of experiment: Apoptosis of PC3 cells (DNA fragmentation Cell Death ELISA, Tunel). As to conditions: 20 mM LY, 20 mM API-2, 50 mM roscovitine or combination for 14 hr (ELISA); 40 hrs (Tunel). The class given is cell-based, human. As to the method:
Tunel positive cells are shown. […] Cells were incubated with Hoechest stain for 5 mins and examined using a fluorescent microscope. […] Amounts of cytosolic histone associated DNA fragments were measured.
as §2
On the technique in general: An ELISA detects its analyte on a solid surface through an enzyme-linked reagent.

For data set [6], the system named is LNCaP, LAPC4 and LAPC9. The settings on record: most prostate cancer cell lines, including LNCaP; cited from earlier work.
The subject of data set [7] is Bim. As to the kind of experiment: Amounts of Bim in LNCaP and PC3 cells. The data set is classed as cell-based, human. The text has this: How AKT inhibitors facilitate the mitochondria-dependent apoptosis of prostate cancer cells remains to be determined. Potential mechanisms include accumulation of the BH3-only protein Bim and dephosphorylation and activation of Bad. The FOXO factors activate the Bim promoter, and AKT phosphorylates Bim, which may prevent its degradation.

Data set [8] deals with lung, breast, and B cell cancer. As to conditions: cited from earlier work.
The test system of data set [9] is malignant tumors refractory to conventional treatments. The settings on record: patients with malignant tumors refractory to conventional treatments; cited from earlier work.
Data set [10] relates to 151 kinases. As to conditions: cited from earlier work.
The test system of data set [11] is LNCaP cells. As to conditions: cited from earlier work.
Data set [12] has as its system melanoma cells expressing wild-type p53 (A375, 888-Mel, 624-Mel). As to conditions: melanoma cells A375, 888-Mel, 624-Mel (wild-type p53); cited from earlier work.
For data set [13] the following is noted: cited from earlier work. The source holds these as a separate data set.
The test system of data set [14] is XIAP. The settings on record: PC3 cells, longer exposure (20 hrs), single agent. On the procedure:
(§4) Lysates were analysed by Western blotting. […] Lysates were analysed by Western blotting.

In data set [15] the test system is Bim. As to conditions: PC3 cells, 8 hrs; roscovitine in either the presence or absence of API-2. As to the method:
as §4

The test system of data set [16] is LNCaP, LNCaP-Rf. The settings on record: LNCaP-Rf prostate cancer cells, roscovitine alone; cited from earlier work.
Data set [17] deals with p53. The settings on record: LNCaP and LNCaP-Rf cells; cited from earlier work.
The conditions of data set [18]: orally, 3 times a day at 200 mg/kg or 2 times a day at 500 mg/kg; cited from earlier work.
The subject of data set [19] is XIAP. The settings on record: LNCaP, LNCaP-Rf, and PC3 cells; cited from earlier work.
Data set [20] has as its system Cdk7/Cdk9. Description: Western blotting: phosphorylation of RNA-Pol II in PC3 cells. As to conditions: short-term exposure (8 hrs).
Method: (§5) Lysates were analysed by Western blotting. […] Cells were exposed to drugs for 20 hrs. Lysates were analysed by Western blotting.
The test system of data set [21] is HTLV-I transformed T cell lines (MT-2). As to conditions: cited from earlier work.
In data set [22] the test system is PC3 and DU145 cells. The settings on record: cited from earlier work.
The subject of data set [23] is Bcl-2. Description: Western blotting: Bcl-2 expression in PC3 cells. As to conditions: longer exposure (20 hrs).
Method: as §5

For `O=c1cc(N2CCOCC2)oc2c(-c3ccccc3)cccc12` [LY, 2-(4-morpholinyl)-8-phenyl-4H-1-benzopyran-4-one], the cell growth result in [1] and in data set [4] was “inhibit cell growth” throughout. Further, in [2] (LNCaP cells, 8 hours, cleavage of caspase-3 substrate PARP, 10 uM LY294002 or 0.5 uM Wortmannin), the PARP cleavage result is “did not induce any PARP cleavage”. The in vivo half-life entry in data set [3] was “short in vivo half-life”. Also, in data set [5], the “apoptosis of PC3 cells” value was “not”. In addition, in data set [6], the apoptotic response entry was “induce a potent apoptotic response”. For the same molecule, the “amounts of Bim” value in [7] is on record as “increase amounts of Bim”.

In the case of `CC[C@H](CO)Nc1nc(NCc2ccccc2)c2ncn(C(C)C)c2n1` [R-roscovitine, 2-(1-R-hydroxymethylpropylamino)-6-benzylamino-9-iso-propylpurine], in data set [8], the “responses, Phase II clinical trials” value is reported as “partial responses lasting more than four months” and the “toxicity, Phase II clinical trials” value was “limited toxicity”. For the same molecule, in data set [9], the “toxicity, Phase I trial” value is “toxicity at higher doses” and the “tumor responses, Phase I trial” value is “no objective tumor responses”. Moreover, the “binding among 151 kinases examined” value in data set [10] is “bound only its known CDK targets and pyridoxal kinase”.

Take `Cc1ccc(C(=O)Cn2c3c(sc2=N)CCCC3)cc1` [pifithrin-α]: the “rescue from roscovitine-induced apoptosis” value in [11] is “rescues LNCaP cells”.

For the molecule `CCC(CO)Nc1nc(NCc2ccccc2)c2ncn(C(C)C)c2n1` (stereo not shown) [roscovitine, 2-(1-ethyl-2-hydroxyethylamino)-6-benzylamino-9-isopropylpurine], the apoptosis entry in data set [12] was “apoptose; also recorded: readily induces apoptosis”; in [16], “can induce apoptosis; also recorded: readily induces apoptosis”; in data set [21] it was “readily induces apoptosis”; in [22], “relatively resistant and not”. For the same molecule, the cell growth result in [1] and in [4] was “inhibit cell growth” in each case. Besides, the “tissue distribution / tumor uptake” value in data set [13] (in vivo) is listed as “highest tumor uptake”. The clearance from plasma result in [13] (via oxidative metabolism of the side chain hydroxyl group, excreted in urine) is on record as “clears slowly”. In addition, in [14], the “XIAP expression / abundance” value is listed as “reduced expression of XIAP”. In addition, the Bim abundance entry in data set [15] was “did not alter Bim abundance”. Also, in data set [2], the PARP cleavage entry was “did not induce any PARP cleavage”. Further, in [2], the “PARP cleavage in the presence as compared with the absence of dominant-negative AKT” value is recorded as “enhanced PARP cleavage”. In addition, in data set [2], the “exposure time at which robust PARP cleavage was evident” value was “more than 9 hr”. Moreover, in data set [17], the p53 abundance entry is listed as “increases p53 abundance”. In data set [18], the “toxicity or adverse effects” value is “without any toxicity or adverse effects”. In data set [19], the XIAP expression result was “reduces XIAP expression”. The “activity of Cdk7/Cdk9 as measured by phosphorylation of RNA-Pol II” value in data set [20] was “reduced activity”. For the same molecule, the “apoptosis of PC3 cells” value in data set [5] is “not”. Besides, the “apoptosis when supplied with roscovitine and wild-type p53” value in [22] (DU145 and PC3 cells) is recorded as “efficiently apoptose”. Besides, the Bcl-2 expression entry in data set [23] is “not”.

For `COC[C@H]1OC(=O)c2coc3c2[C@@]1(C)C1=C(C3=O)[C@@H]2CCC(=O)[C@@]2(C)C[C@H]1OC(C)=O` [wortmannin], the in vivo half-life entry in data set [3] is “short in vivo half-life”.
